Each structure is given as a SMILES string. Values after ≈ are worked out from the molar mass of the structure shown.

The conditions of this data set: buffer; pH 7.4; 200.0 µM.
The term kinetic solubility denotes the concentration staying in solution when a stock, usually in DMSO, is diluted into the medium. For `COc1ccc(/C=C(\C#N)C(=O)NCc2ccccc2)cc1`, the solubility (kinetic) was 2.2 µg/mL (≈ 7.53 µM).

`COCc1cc(OC)nc(-c2csc(C)n2)n1` returned a kinetic solubility of 32.5 µg/mL (≈ 129 µM).

Compound `O=C(O)C1CCCCC1C(=O)NC(c1ccccc1)c1ccccc1` (stereo not drawn) showed a solubility (kinetic) of 48.8 µg/mL (≈ 145 µM).

The compound `Cc1nn(CC(=O)NC2CCC(C)CC2)c(=O)c(C#N)c1C` (stereo not drawn) yielded a solubility (kinetic) above 45.4 µg/mL.

`O=C(O)c1ccccc1Nc1cccc(C(F)(F)F)c1` returned a kinetic solubility above 42.2 µg/mL.

Turning to `COC(=O)[C@@H](NC(=O)NCCC1=CCCCC1)C(C)C`, the kinetic solubility is above 42.4 µg/mL.

For the compound `Cc1cc(NC(=O)CN2C(=O)NC(C)(c3ccccc3Cl)C2=O)no1` (stereo not drawn), the kinetic solubility stood at 28 µg/mL (≈ 77.2 µM).

On to `O=C(/C=C/c1ccc([N+](=O)[O-])s1)N1CCCCC1`, for which the kinetic solubility was above 39.9 µg/mL.

The compound `CC(=O)Cc1nsc(NC(=O)c2ccccc2Cl)n1` yielded a solubility (kinetic) above 44.4 µg/mL.

In the case of `Cc1ccc2c(c1)sc1ncc(NC(=O)c3ccc(F)cc3)c(=O)n12`, the kinetic solubility is below 0.3 µg/mL.

`COc1ccc(N2CCN(S(=O)(=O)c3cnc[nH]3)CC2)cc1` returned a kinetic solubility of 3 µg/mL (≈ 9.31 µM).

`CCN1CCC(N2CCN(c3ccc(F)cc3)CC2)CC1` came in with a kinetic solubility of 35.5 µg/mL (≈ 122 µM).

Compound `Cc1ccc(S(=O)(=O)N2CCCCC2)cc1NC(=O)Cc1cccs1` had a kinetic solubility of 20.6 µg/mL (≈ 54.4 µM).

Regarding `C=CCN1CCN(C(=O)CCc2ccccc2)CC1`, the kinetic solubility was 35.6 µg/mL (≈ 138 µM).

`O=C1CCc2ccc(NS(=O)(=O)c3ccc(F)cc3)cc2N1` displayed a kinetic solubility above 48.1 µg/mL.

Regarding `CCOc1cc(C(F)(F)F)cnc1/C(N)=N/O`, the solubility (kinetic) was determined as 36.9 µg/mL (≈ 148 µM).

As for `C1CN(c2nc3nonc3nc2N2CCSCC2)CCO1`, the solubility (kinetic) turned out to be 41.1 µg/mL (≈ 133 µM).

In turn, `CCOC(=O)c1c(/N=C/c2cccc([N+](=O)[O-])c2O)sc2c1CCC2` registered a solubility (kinetic) of 49.9 µg/mL (≈ 138 µM).

With `COc1cc2c(cc1OC)C(C)N(C(=O)c1c(-c3ccccc3)noc1C)CC2` (stereo not drawn), the kinetic solubility came to 9 µg/mL (≈ 22.9 µM).

The compound `CCCn1cnc2cc(NC(=O)c3cccs3)ccc21` displayed a kinetic solubility above 42.8 µg/mL.

For `Cn1cccc1C1C(C#N)=C(N)OC2=C1C(=O)CC(C)(C)C2` (stereo not drawn), the kinetic solubility amounted to 43.2 µg/mL (≈ 145 µM).

The compound `COc1cc2ccccc2cc1C(=O)Nc1ccc(C)cc1` had a solubility (kinetic) of 2.3 µg/mL (≈ 7.89 µM).

As for `COc1ccc(CCCC(=O)NCCc2ccccc2)c(C)c1`, the solubility (kinetic) was 10.5 µg/mL (≈ 33.7 µM).

In the case of `O=C(CC12CC3CC(CC(C3)C1)C2)Nc1c(F)cccc1F`, the kinetic solubility was below 0.7 µg/mL.

In turn, `O=C1C2C3C=CC(C3)C2C(=O)N1Nc1ccccc1` (stereo not drawn) registered a solubility (kinetic) above 38.1 µg/mL.

In the case of `CCc1nc(N=C(N)N)nc2ccccc12`, the kinetic solubility amounted to 28 µg/mL (≈ 130 µM).

`CC(C)CC1C(C#N)=C(N)OC2=C1C(=O)CC(c1ccccc1)C2` (stereo not drawn) registered a kinetic solubility of 37.6 µg/mL (≈ 117 µM).

On to `CN(C)C(CNC1CC(C)(C)NC(C)(C)C1)c1cccc(F)c1` (stereo not drawn), for which the solubility (kinetic) was 34.7 µg/mL (≈ 108 µM).

`CC(=O)NC(=S)Nc1cc(C(=O)O)ccc1Cl` yielded a kinetic solubility above 40.9 µg/mL.

Compound `Cc1c(C(=O)O)c(C(=O)O)c2n1CCS2` displayed a solubility (kinetic) above 34.1 µg/mL.

Compound `CC(C)CNS(=O)(=O)c1cc2c3c(c1)CC(=O)N3CCC2` registered a kinetic solubility of 45.8 µg/mL (≈ 149 µM).

Turning to `O=C(c1ccc(Cl)cc1)N1CCN(c2ncccn2)CC1`, the solubility (kinetic) is above 45.4 µg/mL.

Regarding `Cc1csc2c(=O)sc(NC(=O)c3ccc(F)cc3)nc12`, the kinetic solubility is below 0.3 µg/mL.

`CC(CN1CCCCC1)OC(=O)/C=C/c1ccccc1.Cl` (stereo not drawn): the kinetic solubility is above 46.5 µg/mL.

Consider `O=CNCc1nc2ccccc2n1CCCc1ccccc1`, for which the kinetic solubility is above 44 µg/mL.

Turning to `O=C(Nc1cccc(NC(=O)c2ccco2)c1)c1ccccc1`, the solubility (kinetic) was 45.9 µg/mL (≈ 150 µM).

`CNC(=O)Cc1csc2ccc(C)cc12` came in with a solubility (kinetic) of 30.4 µg/mL (≈ 139 µM).

In the case of `Cc1cc(S(=O)(=O)Nc2cccnc2)c(Cl)cc1Cl`, the solubility (kinetic) came to 4.5 µg/mL (≈ 14.2 µM).

`Cc1ccc(CNCc2ccc3c(c2)OCO3)cc1` returned a kinetic solubility of 32.5 µg/mL (≈ 127 µM).

For `CN(C)/C=N/c1c(C#N)cnn1C`, the solubility (kinetic) is above 26.6 µg/mL.

On to `COc1ccc(NC(=O)c2cc([N+](=O)[O-])ccc2N2CCCCC2)cc1`, for which the solubility (kinetic) was found to be 0.3 µg/mL (≈ 0.844 µM).

`[Cl-].c1ccc(CNc2cccc[nH+]2)cc1` gave a kinetic solubility above 33.1 µg/mL.

`Cc1ccc(-c2nc(Cl)nc3ccccc23)cc1` registered a kinetic solubility of 1.7 µg/mL (≈ 6.67 µM).

The compound `NC(=O)c1cccnc1Oc1ccccc1` registered a solubility (kinetic) of 28.8 µg/mL (≈ 134 µM).

`COc1cccc(NC(=O)NCc2ccccn2)c1` registered a kinetic solubility above 38.6 µg/mL.

`c1cnc(N2CCN(c3ccc4ccccc4n3)CC2)nc1` showed a solubility (kinetic) of 1.3 µg/mL (≈ 4.46 µM).

Consider `Cc1onc(-c2ccccc2)c1C(=O)N(Cc1ccccn1)Cc1ccccn1`, for which the kinetic solubility was above 57.7 µg/mL.

In turn, `C=CCc1c(N(CC)CC)nc(C)[nH]c1=O` displayed a solubility (kinetic) above 33.2 µg/mL.

`Cc1cc(C(=O)CCC(=O)Nc2ncccc2C)c(C)s1` registered a kinetic solubility of 26.1 µg/mL (≈ 86.3 µM).

In turn, `COc1ccc(/C=C\c2nc(O)c([N+](=O)[O-])c(=O)[nH]2)cc1O` came in with a kinetic solubility above 45.8 µg/mL.

With `Cc1cccc(NC(=O)COC(=O)c2cccs2)c1C`, the kinetic solubility is 1.8 µg/mL (≈ 6.22 µM).

In turn, `Cc1cc(C)cc(OCCN2CCOCC2)c1` gave a kinetic solubility of 22.5 µg/mL (≈ 95.6 µM).

`COc1cc(C(=S)N2CCCC2)ccc1OCc1ccccc1` showed a solubility (kinetic) of 1.5 µg/mL (≈ 4.58 µM).

(Values after PubChem BioAssay AID1996.)
